Laboratory results published in US6440468B1, “Method for obtaining apolar and polar extracts of curcuma and applications thereof” (A.S.A.C. Pharmaceutical International, A.I.E., priority 1994, dated 2002).

Assay: Thermal stability of curcuminoids in the apolar fraction
Assay type: physicochemical
Details: stabilized as of 24-48 hours of exposure
Protocol: Initially, a greater degradation is produced which is stabilized as of 24-48 hours of exposure. Degradation is kept at 2% for temperatures lower than 50° C. and at 4% at 80° C.

thermal degradation of curcuminoids (80° C): 4%
thermal degradation of curcuminoids (temperatures lower than 50° C): 2%
SMILES: COc1cc(/C=C/C(=O)CC(=O)/C=C/c2ccc(O)c(OC)c2)ccc1O [curcumin, curcumin (dipheruloylmethane)]
